Tests used:
Mus musculus [1] = species: Mus musculus; assay: Compound was evaluated for its binding affinity at the anticonvulsant binding site by displacement of [3H]- SB 204269 from mouse forebrain membranes; design: species or system Brain, Membrane
Mus musculus [2] = assay: Compound was tested in vivo for anticonvulsant activity in mouse MEST test (maximal electroshock seizure threshold) at a peroral dose of 10 mg/kg; type: functional; conditions: route oral
Mus musculus [3] = assay: Compound was tested in vivo for anticonvulsant activity in mouse MEST test (maximal electroshock seizure threshold) at a peroral dose of 30 mg/kg; type: functional; conditions: route oral

Row | SMILES | Log Ki (Mus musculus [1]) | Activity (Mus musculus [2]) | Activity (Mus musculus [3])
1 | CC(=O)c1ccc2c(c1C)[C@H](NC(=O)c1ccc(F)cc1)[C@@H](O)C(C)(C)O2 | -5.02 | – | –
2 | CC(=O)c1ccc2c(c1)[C@H](NC(=O)c1ccc(F)c(Cl)c1)[C@@H](O)C(C)(C)O2 | -7.91 | 138% | –
3 | CC(=O)c1cc2c(cc1C)OC(C)(C)[C@H](O)[C@H]2NC(=O)c1ccc(F)cc1 | -6.15 | – | –
4 | CC1(C)Oc2ccc3c(c2[C@H](NC(=O)c2ccc(F)cc2)[C@H]1O)CCCC3=O | < -5 | – | –
5 | CC1(C)Oc2cc3c(cc2[C@H](NC(=O)c2ccc(F)c(Cl)c2)[C@H]1O)C(=O)CCC3 | -7.6 | – | 98%
6 | CC(=O)c1ccc2c(c1)[C@H](NC(=O)c1ccc(F)cc1)[C@@H](O)C(C)(C)O2 [CARABERSAT] | -7.32 | – | –

Source: ChEMBL document CHEMBL1130459, “Conformational preference of the 6-acetyl group in novel anticonvulsant trans 4S-benzamido-benzo[b]pyran-3R-ols” (Bioorg Med Chem Lett, 1997)
